Assay results published in the supplement of paper PMC10733146.

How the values were obtained:
Experiment in all cases: viability relative to DMSO control (fraction); higher = less drug effect (more viable cells)
Details in all cases: 48 h
[1] = system: primary ALL patient cells (S048)
Outline: (§1)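 Cells were incubated for 48 h at 37 °C and 5% CO2 in RPMI-1640 with penicillin/streptomycin, L-glutamine and human serum, at 4 × 10^4 cells per well in 384-well plates with compounds pre-plated at five concentrations, one well each. These were primary mononuclear tumour cells, fresh or cryopreserved, Ficoll-isolated from blood or bone marrow or obtained from processed lymph node. Viability values are CellTiter-Glo luminescence relative to the median of 16 inner DMSO wells.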

[2] = system: primary AML patient cells (S002)
Outline: as §1

[3] = system: primary AML patient cells (S072)
Outline: as §1

[4] = system: primary AML patient cells (S085)
Outline: as §1

[5] = system: primary MCL patient cells (S068)
Outline: as §1

[6] = system: primary MCL patient cells (S053)
Outline: as §1

[7] = system: primary AML patient cells (S019)
Outline: as §1

[8] = system: primary CLL patient cells (S031)
Outline: as §1

[9] = system: primary AML patient cells (S089)
Outline: as §1

[10] = system: primary AML patient cells (S079)
Outline: as §1

[11] = system: primary CLL patient cells (S043)
Outline: as §1

[12] = system: primary AML patient cells (S017)
Outline: as §1

[13] = system: primary AML patient cells (S012)
Outline: as §1

[14] = system: primary AML patient cells (S091)
Outline: as §1

[15] = system: primary BL patient cells (S005)
Outline: as §1

[16] = system: primary AML patient cells (S056)
Outline: as §1

[17] = system: primary AML patient cells (S071)
Outline: as §1

[18] = system: primary AML patient cells (S037)
Outline: as §1

[19] = system: primary FL patient cells (S022)
Outline: as §1

[20] = system: primary AML patient cells (S025)
Outline: as §1

Cc1cc(Nc2ncc(Cl)c(Nc3ccccc3S(=O)(=O)C(C)C)n2)c(OC(C)C)cc1C1CCNCC1 [Ceritinib]
viability ([1]; 0.024 µM): 0.855
viability ([1]; 0.12 µM): 0.83
viability ([1]; 0.6 µM): 0.634
viability ([1]; 3 µM): 0.505
viability ([1]; 15 µM): 0.0153
viability ([2]; 0.024 µM): 1.12
viability ([2]; 0.12 µM): 0.926
viability ([2]; 0.6 µM): 0.861
viability ([2]; 3 µM): 0.616
viability ([2]; 15 µM): 0.0299
viability ([3]; 0.024 µM): 0.954
viability ([3]; 0.12 µM): 0.939
viability ([3]; 0.6 µM): 0.79
viability ([3]; 3 µM): 0.582
viability ([3]; 15 µM): 0.0168
viability ([4]; 0.024 µM): 1.02
viability ([4]; 0.12 µM): 0.875
viability ([4]; 0.6 µM): 0.62
viability ([4]; 3 µM): 0.49
viability ([4]; 15 µM): 0.0171
viability ([5]; 0.024 µM): 0.94
viability ([5]; 0.12 µM): 0.84
viability ([5]; 0.6 µM): 0.88
viability ([5]; 3 µM): 1.02
viability ([5]; 15 µM): 0.0227
viability ([6]; 0.024 µM): 0.986
viability ([6]; 0.12 µM): 1.01
viability ([6]; 0.6 µM): 1
viability ([6]; 3 µM): 0.832
viability ([6]; 15 µM): 0.0213
viability ([7]; 0.024 µM): 1.08
viability ([7]; 0.12 µM): 1
viability ([7]; 0.6 µM): 1.03
viability ([7]; 3 µM): 0.773
viability ([7]; 15 µM): 0.0262
viability ([8]; 0.024 µM): 1
viability ([8]; 0.12 µM): 0.899
viability ([8]; 0.6 µM): 0.838
viability ([8]; 3 µM): 0.628
viability ([8]; 15 µM): 0.018
viability ([9]; 0.024 µM): 0.974
viability ([9]; 0.12 µM): 0.866
viability ([9]; 0.6 µM): 0.562
viability ([9]; 3 µM): 0.393
viability ([9]; 15 µM): 0.0151
viability ([10]; 0.024 µM): 0.964
viability ([10]; 0.12 µM): 0.933
viability ([10]; 0.6 µM): 0.844
viability ([10]; 3 µM): 0.738
viability ([10]; 15 µM): 0.0169
viability ([11]; 0.024 µM): 1.05
viability ([11]; 0.12 µM): 0.943
viability ([11]; 0.6 µM): 0.928
viability ([11]; 3 µM): 0.684
viability ([11]; 15 µM): 0.0198
viability ([12]; 0.024 µM): 0.958
viability ([12]; 0.12 µM): 0.963
viability ([12]; 0.6 µM): 0.995
viability ([12]; 3 µM): 0.773
viability ([12]; 15 µM): 0.0225
viability ([13]; 0.024 µM): 1.05
viability ([13]; 0.12 µM): 1.03
viability ([13]; 0.6 µM): 1.06
viability ([13]; 3 µM): 1.01
viability ([13]; 15 µM): 0.0296
viability ([14]; 0.024 µM): 0.947
viability ([14]; 0.12 µM): 0.77
viability ([14]; 0.6 µM): 0.436
viability ([14]; 3 µM): 0.176
viability ([14]; 15 µM): 0.0224
viability ([15]; 0.024 µM): 1.05
viability ([15]; 0.12 µM): 0.992
viability ([15]; 0.6 µM): 0.944
viability ([15]; 3 µM): 0.669
viability ([15]; 15 µM): 0.0199
viability ([16]; 0.024 µM): 0.954
viability ([16]; 0.12 µM): 1.41
viability ([16]; 0.6 µM): 0.654
viability ([16]; 3 µM): 0.375
viability ([16]; 15 µM): 0.0154
viability ([17]; 0.024 µM): 0.865
viability ([17]; 0.12 µM): 0.781
viability ([17]; 0.6 µM): 0.476
viability ([17]; 3 µM): 0.174
viability ([17]; 15 µM): 0.0165
viability ([18]; 0.024 µM): 1.5
viability ([18]; 0.12 µM): 0.922
viability ([18]; 0.6 µM): 1.12
viability ([18]; 3 µM): 0.742
viability ([18]; 15 µM): 0.296
viability ([19]; 0.024 µM): 1.01
viability ([19]; 0.12 µM): 0.948
viability ([19]; 0.6 µM): 0.846
viability ([19]; 3 µM): 0.555
viability ([19]; 15 µM): 0.0165
viability ([20]; 0.024 µM): 0.985
viability ([20]; 0.12 µM): 0.874
viability ([20]; 0.6 µM): 0.838
viability ([20]; 3 µM): 0.508
viability ([20]; 15 µM): 0.0191

CCN1CCN(Cc2ccc(Nc3ncc(F)c(-c4cc(F)c5nc(C)n(C(C)C)c5c4)n3)nc2)CC1
viability ([1]; 0.024 µM): 0.546
viability ([1]; 0.12 µM): 0.443
viability ([1]; 0.6 µM): 0.263
viability ([1]; 3 µM): 0.0396
viability ([1]; 15 µM): 0.00487
viability ([2]; 0.024 µM): 0.84
viability ([2]; 0.12 µM): 0.894
viability ([2]; 0.6 µM): 0.884
viability ([2]; 3 µM): 0.363
viability ([2]; 15 µM): 0.139
viability ([3]; 0.024 µM): 0.893
viability ([3]; 0.12 µM): 1.03
viability ([3]; 0.6 µM): 0.73
viability ([3]; 3 µM): 0.251
viability ([3]; 15 µM): 0.0132
viability ([4]; 0.024 µM): 0.895
viability ([4]; 0.12 µM): 1.01
viability ([4]; 0.6 µM): 1.22
viability ([4]; 3 µM): 0.265
viability ([4]; 15 µM): 0.0115
viability ([5]; 0.024 µM): 0.836
viability ([5]; 0.12 µM): 0.934
viability ([5]; 0.6 µM): 1.09
viability ([5]; 3 µM): 0.0754
viability ([5]; 15 µM): 0.0119
viability ([6]; 0.024 µM): 0.896
viability ([6]; 0.12 µM): 0.737
viability ([6]; 0.6 µM): 0.565
viability ([6]; 3 µM): 0.144
viability ([6]; 15 µM): 0.0105
viability ([7]; 0.024 µM): 1.18
viability ([7]; 0.12 µM): 0.939
viability ([7]; 0.6 µM): 1.13
viability ([7]; 3 µM): 0.232
viability ([7]; 15 µM): 0.0632
viability ([8]; 0.024 µM): 0.841
viability ([8]; 0.12 µM): 0.752
viability ([8]; 0.6 µM): 0.771
viability ([8]; 3 µM): 0.238
viability ([8]; 15 µM): 0.00593
viability ([9]; 0.024 µM): 0.589
viability ([9]; 0.12 µM): 0.962
viability ([9]; 0.6 µM): 0.576
viability ([9]; 3 µM): 0.0472
viability ([9]; 15 µM): 0.0221
viability ([10]; 0.024 µM): 0.969
viability ([10]; 0.12 µM): 1.07
viability ([10]; 0.6 µM): 1.03
viability ([10]; 3 µM): 0.598
viability ([10]; 15 µM): 0.0143
viability ([11]; 0.024 µM): 0.893
viability ([11]; 0.12 µM): 1.05
viability ([11]; 0.6 µM): 0.936
viability ([11]; 3 µM): 0.58
viability ([11]; 15 µM): 0.24
viability ([12]; 0.024 µM): 1.01
viability ([12]; 0.12 µM): 1.14
viability ([12]; 0.6 µM): 1.1
viability ([12]; 3 µM): 0.73
viability ([12]; 15 µM): 0.179
viability ([13]; 0.024 µM): 1.11
viability ([13]; 0.12 µM): 1.04
viability ([13]; 0.6 µM): 1.07
viability ([13]; 3 µM): 0.986
viability ([13]; 15 µM): 0.902
viability ([14]; 0.024 µM): 0.77
viability ([14]; 0.12 µM): 0.939
viability ([14]; 0.6 µM): 0.849
viability ([14]; 3 µM): 0.569
viability ([14]; 15 µM): 0.333
viability ([15]; 0.024 µM): 1.01
viability ([15]; 0.12 µM): 1.61
viability ([15]; 0.6 µM): 0.924
viability ([15]; 3 µM): 0.725
viability ([15]; 15 µM): 0.374
viability ([16]; 0.024 µM): 0.703
viability ([16]; 0.12 µM): 0.546
viability ([16]; 0.6 µM): 0.444
viability ([16]; 3 µM): 0.136
viability ([16]; 15 µM): 0.0316
viability ([17]; 0.024 µM): 0.728
viability ([17]; 0.12 µM): 0.533
viability ([17]; 0.6 µM): 0.39
viability ([17]; 3 µM): 0.0958
viability ([17]; 15 µM): 0.0535
viability ([18]; 0.024 µM): 0.952
viability ([18]; 0.12 µM): 0.926
viability ([18]; 0.6 µM): 1.03
viability ([18]; 3 µM): 0.71
viability ([18]; 15 µM): 0.255
viability ([19]; 0.024 µM): 1.12
viability ([19]; 0.12 µM): 1.01
viability ([19]; 0.6 µM): 1.06
viability ([19]; 3 µM): 0.616
viability ([19]; 15 µM): 0.00982
viability ([20]; 0.024 µM): 1.11
viability ([20]; 0.12 µM): 1.02
viability ([20]; 0.6 µM): 1.1
viability ([20]; 3 µM): 0.372
viability ([20]; 15 µM): 0.0187
